46 compounds from patent US11555012B2 (Nimbus Artemis, Inc., priority 2018, dated 2023) can be followed below.

In this test the target is ACL (Homo sapiens (Human), UniProt P53396). Nature of the test: ADP-Glo Assay. In general terms: ADP-Glo first removes unused ATP, then detects ADP through luciferase.
Sequence of ACL (P53396 other isoform, or with tags, fused parts or gaps isoform P53396-2): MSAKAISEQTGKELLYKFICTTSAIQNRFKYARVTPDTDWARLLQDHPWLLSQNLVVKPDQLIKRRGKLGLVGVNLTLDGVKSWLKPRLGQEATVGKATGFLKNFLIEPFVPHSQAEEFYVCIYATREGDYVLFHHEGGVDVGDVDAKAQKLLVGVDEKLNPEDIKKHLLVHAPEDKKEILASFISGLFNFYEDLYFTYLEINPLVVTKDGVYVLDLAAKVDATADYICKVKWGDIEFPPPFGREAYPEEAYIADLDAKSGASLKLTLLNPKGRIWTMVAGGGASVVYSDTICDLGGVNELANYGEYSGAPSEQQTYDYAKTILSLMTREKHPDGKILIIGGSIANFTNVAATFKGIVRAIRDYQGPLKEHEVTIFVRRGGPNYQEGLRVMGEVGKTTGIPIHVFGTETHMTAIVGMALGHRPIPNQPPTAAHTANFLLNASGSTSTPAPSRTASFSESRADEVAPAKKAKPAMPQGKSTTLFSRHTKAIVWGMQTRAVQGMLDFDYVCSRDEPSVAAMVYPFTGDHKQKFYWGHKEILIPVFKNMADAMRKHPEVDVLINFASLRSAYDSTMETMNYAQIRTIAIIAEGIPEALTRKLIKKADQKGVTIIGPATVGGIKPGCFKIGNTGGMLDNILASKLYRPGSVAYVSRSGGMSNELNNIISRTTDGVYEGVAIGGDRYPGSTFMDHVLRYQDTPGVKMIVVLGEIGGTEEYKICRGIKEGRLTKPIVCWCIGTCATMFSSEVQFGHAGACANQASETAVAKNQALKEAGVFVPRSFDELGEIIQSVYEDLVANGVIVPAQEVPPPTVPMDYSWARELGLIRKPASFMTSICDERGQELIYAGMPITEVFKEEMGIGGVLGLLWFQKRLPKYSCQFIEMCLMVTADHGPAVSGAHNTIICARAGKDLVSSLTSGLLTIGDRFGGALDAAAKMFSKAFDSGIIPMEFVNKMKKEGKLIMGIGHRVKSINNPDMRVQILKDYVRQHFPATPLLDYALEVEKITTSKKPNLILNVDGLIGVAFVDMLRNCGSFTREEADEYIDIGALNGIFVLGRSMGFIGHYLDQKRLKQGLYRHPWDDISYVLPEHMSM

With `O=C(O)COc1ccc(-c2ccccc2)cc1NS(=O)(=O)c1cc(C(=O)N2CCC2)cc(Cl)c1O` [I-270, 2-([3-[5-(azetidine-1-carbonyl)-3-chloro-2-hydroxybenzenesulfonamido]-[1,1-biphenyl]-4-yl]oxy)acetic Acid], the IC50 lay in the range of 0.5 to 20 µM.

Compound `CN(C)C(=O)c1cc(Cl)c(O)c(S(=O)(=O)Nc2cc(-c3ccccc3)ccc2C(=O)O)c1` [I-271, 3-((3-chloro-5-(dimethylcarbamoyl)-2-hydroxyphenyl)sulfonamido)-[1,1′-biphenyl]-4-carboxylic Acid] gave an IC50 of 0.5 to 20 µM.

The compound `O=C(O)c1ccc(-c2ccccc2)cc1NS(=O)(=O)c1cccc(Cl)c1` [I-273, 3-((3-chlorophenyl)sulfonamido)-[1,1′-biphenyl]-4-carboxylic acid] returned an IC50 of 0.5 to 20 µM.

`O=C(O)c1ccc(-c2ccccc2)cc1NS(=O)(=O)CC1CCCC1` [I-274] had an IC50 of 0.5 to 20 µM.

Compound `COc1ccc(-c2ccccc2)cc1NS(=O)(=O)c1cc(C(=O)N2CCNCC2)cc(Cl)c1O` [I-277, 3-chloro-2-hydroxy-N-[4-methoxy-[1,1-biphenyl]-3-yl]-5-(piperazine-1-carbonyl)benzene-1-sulfonamide] gave an IC50 of 0.5 to 20 µM.

For `O=C(O)c1cc(-c2ccccc2)ccc1NS(=O)(=O)c1cc(Cl)cc(Cl)c1` [I-278, 4-((3,5-dichlorophenyl)sulfonamido)-[1,1′-biphenyl]-3-carboxylic acid], the IC50 lay within 0.5 to 20 µM.

Turning to `CC(=O)N1CCCN(c2ccc(-c3ccccc3)cc2NS(=O)(=O)c2cc(Cl)cc(Cl)c2O)CC1` [I-279, N-[4-(4-acetyl-1,4-diazepan-1-yl)-[1,1-biphenyl]-3-yl]-3,5-dichloro-2-hydroxybenzene-1-sulfonamide], the half-maximal inhibitory concentration (IC50) lay within 0.5 to 20 µM.

With `O=C(Cc1cc(Cl)cc(Cl)c1)Nc1cc(-c2ccccc2)ccc1C(=O)O` [I-280, 3-(2-(3,5-dichlorophenyl)acetamido)-[1,1′-biphenyl]-4-carboxylic Acid], the IC50 fell in the range of 0.5 to 20 µM.

Turning to `O=C(O)c1cc(Cl)c(O)c(S(=O)(=O)Nc2ccccc2F)c1` [I-283, 3-chloro-5-[(2-fluorophenyl)sulfamoyl]-4-hydroxybenzoic acid], the IC50 lay within 0.5 to 20 µM.

Regarding `O=C(O)c1ccc(-c2ccccc2)cc1NS(=O)(=O)c1ccc(Cl)c(Cl)c1` [I-284, 3-((3,4-dichlorophenyl)sulfonamido)-[1,1′-biphenyl]-4-carboxylic acid], the concentration for half-maximal inhibition (IC50) fell in the range of 0.5 to 20 µM.

`O=S(=O)(Nc1ccccc1Oc1ccccc1)c1cc(Cl)cc(Cl)c1O` [I-285, 3,5-dichloro-2-hydroxy-N-(2-phenoxyphenyl)benzene-1-sulfonamide] returned an IC50 of 0.5 to 20 µM.

`O=C(O)c1ccc(-c2ccccc2)cc1NS(=O)(=O)c1cc(Cl)ccc1Cl` [I-288, 3-((2,5-dichlorophenyl)sulfonamido)-[1,1′-biphenyl]-4-carboxylic acid] showed an IC50 of 0.5 to 20 µM.

Turning to `O=S(=O)(Nc1cc(-n2nccn2)c(F)cc1F)c1cc(Cl)cc(Cl)c1O` [I-290, 3,5-dichloro-N-[2,4-difluoro-5-(2H-1,2,3-triazol-2-yl)phenyl]-2-hydroxybenzene-1-sulfonamide], the IC50 was 0.5 to 20 µM.

Regarding `O=C(O)CCCOc1ccc(-c2ccccc2)cc1NS(=O)(=O)c1cc(Cl)cc(Cl)c1` [I-291, 4-[[3-(3,5-dichlorobenzenesulfonamido)-[1,1-biphenyl]-4-yl]oxy]butanoic Acid], the IC50 fell in the range of 0.5 to 20 µM.

For the compound `O=C(O)c1ccc(-c2ccccc2)cc1NS(=O)(=O)c1cccc(C(F)(F)F)c1` [I-292, 3-((3-(trifluoromethyl)phenyl)sulfonamido)-[1,1′-biphenyl]-4-carboxylic acid], the IC50 lay in the range of 0.5 to 20 µM.

Take `O=C(O)c1ccc(-c2ccccc2)cc1NS(=O)(=O)c1cccnc1Cl` [I-300]: the half-inhibitory concentration (IC50) was 0.5 to 20 µM.

With `O=C(O)c1ccc(-c2ccccc2)cc1NS(=O)(=O)c1ccc2[nH]ncc2c1` [I-301, 3-(1H-indazole-5-sulfonamido)-[1,1′-biphenyl]-4-carboxylic Acid], the IC50 lay in the range of 0.5 to 20 µM.

Compound `O=C(O)c1cc(Br)cc(S(=O)(=O)Nc2cc(-c3ccccc3)ccc2C(=O)O)c1` [I-303, 3-((3-bromo-5-carboxyphenyl)sulfonamido)-[1,1′-biphenyl]-4-carboxylic Acid] had an IC50 of 0.5 to 20 µM.

Take `O=C(O)c1ccc(-c2ccccc2)cc1NS(=O)(=O)CC1CCC1` [I-307, 3-((cyclobutylmethyl)sulfonamido)-[1,1′-biphenyl]-4-carboxylic Acid]: the IC50 lay within 0.5 to 20 µM.

Turning to `O=C(O)COc1c(Cl)cc(Cl)cc1C(=O)Nc1cc(-c2ccccc2)ccc1C(=O)O` [I-308, 3-(2-(carboxymethoxy)-3,5-dichlorobenzamido)-[1,1′-biphenyl]-4-carboxylic Acid], the IC50 was 0.5 to 20 µM.

`O=C(NCc1cc(-c2ccccc2)ccc1C(=O)O)c1cc(Cl)cc(Cl)c1` [I-309, 3-((3,5-dichlorobenzamido)methyl)-[1,1′-biphenyl]-4-carboxylic Acid] registered an IC50 of 0.5 to 20 µM.

In the case of `Cc1cccc(CS(=O)(=O)Nc2cc(-c3ccccc3)ccc2C(=O)O)c1` [I-310, 3-((m-tolylmethyl)sulfonamido)-[1,1′-biphenyl]-4-carboxylic acid], the IC50 was 0.5 to 20 µM.

As to `O=C(O)c1ccc(-c2ccccc2)cc1NS(=O)(=O)c1cccc(C(F)(F)F)n1` [I-312, 3-((6-(trifluoromethyl)pyridine)-2-sulfonamido)-[1,1′-biphenyl]-4-carboxylic Acid], the IC50 is 0.5 to 20 µM.

`COc1ccc(C)cc1S(=O)(=O)Nc1cc(-c2ccccc2)ccc1C(=O)O` [I-313, 3-((2-methoxy-5-methylphenyl)sulfonamido)-[1,1′-biphenyl]-4-carboxylic Acid] returned a concentration for half-maximal inhibition (IC50) of 0.5 to 20 µM.

In turn, `CC(=O)c1cccc(S(=O)(=O)Nc2cc(-c3ccccc3)ccc2C(=O)O)c1` [I-314, 3-((3-acetylphenyl)sulfonamido)-[1,1′-biphenyl]-4-carboxylic Acid] displayed an IC50 of 0.5 to 20 µM.

`COc1ccc(F)cc1S(=O)(=O)Nc1cc(-c2ccccc2)ccc1C(=O)O` [I-315, 3-((5-fluoro-2-methoxyphenyl)sulfonamido)-[1,1′-biphenyl]-4-carboxylic Acid] had an IC50 of 0.5 to 20 µM.

`O=C(O)c1ccc(-c2ccccc2)cc1NS(=O)(=O)c1cc(Br)cs1` [I-319, 3-((4-bromothiophene)-2-sulfonamido)-[1,1′-biphenyl]-4-carboxylic acid] gave an IC50 of 0.5 to 20 µM.

As for `NC(=O)COc1c(Cl)cc(Cl)cc1C(=O)Nc1cc(-c2ccccc2)ccc1C(=O)O` [I-320, 3-(2-(2-amino-2-oxoethoxy)-3,5-dichlorobenzamido)-[1,1′-biphenyl]-4-carboxylic Acid], the IC50 lay in the range of 0.5 to 20 µM.

Compound `Cc1ccc(C(=O)O)c(NS(=O)(=O)c2cc(Cl)cc(Cl)c2)c1` [I-321, 2-((3,5-dichlorophenyl)sulfonamido)-4-methylbenzoic Acid] came in with an IC50 of 0.5 to 20 µM.

For `O=C(O)c1ccc(C(F)(F)F)cc1NS(=O)(=O)c1cc(Cl)cc(Cl)c1` [I-324, 2-((3,5-dichlorophenyl)sulfonamido)-4-(trifluoromethyl)benzoic Acid], the IC50 was in the range of 0.5 to 20 µM.

Compound `CN(c1cc(-c2ccccc2)c(F)cc1C(=O)O)S(=O)(=O)c1cc(Cl)cc(Cl)c1` [I-325, 5-((3,5-dichloro-N-methylphenyl)sulfonamido)-2-fluoro-[1,1′-biphenyl]-4-carboxylic Acid] yielded a half-inhibitory concentration (IC50) of 0.5 to 20 µM.

In turn, `COCc1cc(Cl)cc(S(=O)(=O)Nc2cc(-c3ccccc3)ccc2C(=O)O)c1` [I-337] registered a half-inhibitory concentration (IC50) of 0.5 to 20 µM.

In the case of `O=C(O)c1c(NS(=O)(=O)c2cc(Cl)cc(Cl)c2)sc2c1CCC2` [I-341, 2-((3,5-dichlorophenyl)sulfonamido)-5,6-dihydro-4H-cyclopenta[b]thiophene-3-carboxylic acid], the IC50 lay within 0.5 to 20 µM.

For `O=C(O)c1ccc(-c2ccccc2)cc1NS(=O)(=O)c1cc(Cl)cc(Cl)c1F` [I-342, 3-((3,5-dichloro-2-fluorophenyl)sulfonamido)-[1,1′-biphenyl]-4-carboxylic Acid], the IC50 lay in the range of 0.5 to 20 µM.

Compound `O=C(O)c1cc(Cl)ccc1NS(=O)(=O)c1cc(Cl)cc(Cl)c1` [I-343, 5-chloro-2-((3,5-dichlorophenyl)sulfonamido)benzoic Acid] had an IC50 of 0.5 to 20 µM.

`Cc1nn(C)c(Cl)c1S(=O)(=O)Nc1cc(-c2ccccc2)ccc1C(=O)O` [I-345, 3-((5-chloro-1,3-dimethyl-1H-pyrazole)-4-sulfonamido)-[1,1′-biphenyl]-4-carboxylic Acid] had an IC50 of 0.5 to 20 µM.

As to `COC(=O)c1ccc(-c2ccccc2)cc1NS(=O)(=O)c1cc(Cl)cnc1O` [I-346, methyl 3-((5-chloro-2-hydroxypyridine)-3-sulfonamido)-[1,1′-biphenyl]-4-carboxylate], the IC50 fell in the range of 0.5 to 20 µM.

`Cc1noc(C)c1S(=O)(=O)Nc1cc(-c2ccccc2)ccc1C(=O)O` [I-351, 3-((3,5-dimethylisoxazole)-4-sulfonamido)-[1,1′-biphenyl]-4-carboxylic Acid] came in with an IC50 of 0.5 to 20 µM.

On to `O=C(O)c1ccsc1NS(=O)(=O)c1cc(Cl)cc(Cl)c1` [I-352, 2-((3,5-dichlorophenyl)sulfonamido)thiophene-3-carboxylic Acid], for which the IC50 was in the range of 0.5 to 20 µM.

`O=C(O)c1ccc(-c2ccccc2)cc1NS(=O)(=O)c1ccc(C(F)(F)F)cc1` [I-353, 3-((4-(trifluoromethyl)phenyl)sulfonamido)-[1,1′-biphenyl]-4-carboxylic acid] showed an IC50 of 0.5 to 20 µM.

Regarding `COc1ccc(-c2ccccc2)cc1NS(=O)(=O)c1cc(Cl)c[nH]c1=O` [I-354, 5-chloro-N-[4-methoxy-[1,1-biphenyl]-3-yl]-2-oxo-1,2-dihydropyridine-3-sulfonamide], the IC50 lay in the range of 0.5 to 20 µM.

For `O=C(O)c1ccc(-c2ccccc2)cc1NS(=O)(=O)CCC1CCCC1` [I-356], the IC50 was in the range of 0.5 to 20 µM.

Consider `Cc1cc(S(=O)(=O)Nc2cc(-c3ccccc3)ccc2C(=O)O)ccc1-n1cnnn1` [I-357], for which the IC50 was in the range of 0.5 to 20 µM.

In turn, `O=C(O)c1ccc(-c2ccccc2)cc1NS(=O)(=O)c1ccc(-n2cccn2)c(F)c1` [I-358] showed an IC50 of 0.5 to 20 µM.

On to `O=C(O)c1ccc(-c2ccccc2)cc1NS(=O)(=O)c1cc(Br)cc2c1OCCNC2=O` [I-359], for which the IC50 fell in the range of 0.5 to 20 µM.

On to `O=C(O)c1ccc(-c2ccccc2)cc1NS(=O)(=O)CCOCCN1C(=O)c2ccccc2C1=O` [I-360], for which the IC50 was 0.5 to 20 µM.

As usually defined, the IC50 is the concentration that inhibits the measured activity by half.
